Test results as given in patent publication US20220315967A1, “METHODS FOR PRODUCING D-TRYPTOPHAN AND SUBSTITUTED D-TRYPTOPHANS” (priority 2019, published 2022).
Where two headings read alike, the source gives them in different places.

Key:
IvoA-C = target: T1, IvoA-C (Emericella nidulans, UniProt C8V7P4); test: Thioesterase assay of standalone IvoA-C with synthetic thioester substrates; type: biochemical, Aspergillus nidulans; details: pH 6.9, boiled enzyme control
T1 construct: were incubated with standalone IvoA C domain at pH 6.9; hexahistidine (His6) with TEV protease site (N); made in house; host or cells: E. coli BL21(DE3)
T1 sequence (C8V7P4 1325-1477): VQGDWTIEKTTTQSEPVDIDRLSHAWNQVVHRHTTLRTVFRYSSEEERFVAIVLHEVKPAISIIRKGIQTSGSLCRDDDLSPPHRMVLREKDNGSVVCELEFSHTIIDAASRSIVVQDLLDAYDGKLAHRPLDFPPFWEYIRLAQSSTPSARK
Procedure: FIG. 17 provides data and associated schematics for an In vitro assay of IvoA-C with synthetic thioester substrates. Synthetic thioester substrates (DL-tryptophan-S—N-acetylcysteamine, DL-Trp-SNAC: D-tryptophan-S-pantatheine, D-Trp-pant) were incubated with standalone IvoA C domain at pH 6.9. Enzymes were boiled to measure the nonenzymatic hydrolysis. Free tryptophan and tryptophanyl thioesters were separated by HPLC.
The thioesterase activity assay of standalone IvoA-C was performed in ammonium acetate buffer (20 mM, pH=6.9). Typically, 5 mM synthetic substrate (5% DMSO) was incubated with 50 μM enzyme. The reaction was analyzed by HPLC. Boiled enzyme was used as control to measure the background nonenzymatic hydrolysis.

IvoA A domain = target: T2, IvoA A domain (Emericella nidulans, UniProt C8V7P4, S785A); test: Hydroxylamine-based colorimetric adenylation assay; type: biochemical, Aspergillus nidulans
T2 construct: The full-length wild-type IvoA and mutants were expressed in S. cerevisiae JHY686 strain; octahistidine (His8) (N); made in house; host or cells: Saccharomyces cerevisiae JHY686
T2 sequence (C8V7P4 whole entry S785A): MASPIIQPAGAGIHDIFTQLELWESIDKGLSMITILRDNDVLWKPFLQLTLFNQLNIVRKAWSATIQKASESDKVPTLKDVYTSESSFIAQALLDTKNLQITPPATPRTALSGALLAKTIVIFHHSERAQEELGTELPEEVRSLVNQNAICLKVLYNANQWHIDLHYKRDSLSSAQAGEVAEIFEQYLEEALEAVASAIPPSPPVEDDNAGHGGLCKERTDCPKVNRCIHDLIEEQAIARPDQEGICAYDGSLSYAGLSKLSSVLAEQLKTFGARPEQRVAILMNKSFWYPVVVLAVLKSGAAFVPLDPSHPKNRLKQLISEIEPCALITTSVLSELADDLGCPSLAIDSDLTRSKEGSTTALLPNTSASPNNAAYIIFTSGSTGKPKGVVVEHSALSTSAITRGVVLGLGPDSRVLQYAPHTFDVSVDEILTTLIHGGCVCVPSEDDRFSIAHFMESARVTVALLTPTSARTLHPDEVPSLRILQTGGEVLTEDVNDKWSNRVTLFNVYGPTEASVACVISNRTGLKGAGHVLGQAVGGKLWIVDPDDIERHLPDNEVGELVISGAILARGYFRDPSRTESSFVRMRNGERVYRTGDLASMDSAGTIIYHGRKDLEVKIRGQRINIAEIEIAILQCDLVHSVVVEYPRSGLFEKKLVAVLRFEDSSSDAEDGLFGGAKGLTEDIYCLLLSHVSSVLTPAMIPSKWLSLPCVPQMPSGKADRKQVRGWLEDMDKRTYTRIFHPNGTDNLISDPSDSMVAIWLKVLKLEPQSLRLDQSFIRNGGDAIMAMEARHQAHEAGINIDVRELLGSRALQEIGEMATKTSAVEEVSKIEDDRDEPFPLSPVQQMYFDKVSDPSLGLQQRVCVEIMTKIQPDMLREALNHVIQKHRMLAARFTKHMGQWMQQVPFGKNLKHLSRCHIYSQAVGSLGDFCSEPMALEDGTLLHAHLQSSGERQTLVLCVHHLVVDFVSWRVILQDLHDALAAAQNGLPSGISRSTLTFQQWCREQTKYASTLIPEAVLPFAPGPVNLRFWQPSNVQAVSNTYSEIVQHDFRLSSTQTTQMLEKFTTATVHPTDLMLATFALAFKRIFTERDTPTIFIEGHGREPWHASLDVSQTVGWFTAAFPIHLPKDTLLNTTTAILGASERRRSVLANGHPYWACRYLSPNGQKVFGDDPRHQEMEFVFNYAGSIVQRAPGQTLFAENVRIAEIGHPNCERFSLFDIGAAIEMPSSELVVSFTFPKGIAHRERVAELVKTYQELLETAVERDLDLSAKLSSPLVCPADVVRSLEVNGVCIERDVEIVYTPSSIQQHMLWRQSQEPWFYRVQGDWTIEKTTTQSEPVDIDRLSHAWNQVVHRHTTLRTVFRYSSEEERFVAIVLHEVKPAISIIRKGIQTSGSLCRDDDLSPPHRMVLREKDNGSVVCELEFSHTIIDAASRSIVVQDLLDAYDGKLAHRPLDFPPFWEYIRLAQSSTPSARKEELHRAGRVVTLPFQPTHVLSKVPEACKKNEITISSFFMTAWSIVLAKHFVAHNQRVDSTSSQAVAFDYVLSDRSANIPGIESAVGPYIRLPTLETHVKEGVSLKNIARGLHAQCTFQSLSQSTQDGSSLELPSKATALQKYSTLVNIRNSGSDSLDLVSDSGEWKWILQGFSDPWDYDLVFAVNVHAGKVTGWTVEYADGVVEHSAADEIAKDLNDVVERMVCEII
Procedure: FIG. 9 provides data showing Hydroxylamine-based colorimetric assay for studying substrate specificity of IvoA A domain. The reaction condition is 2 μM of IvoA-T^0+3 mM of ATP+0.1 mM of carboxylic acid substrate+15 mM hydroxylamine+15 mM MgCl2 in Tris buffer (pH 8.0). The reaction is quenched after 3 hrs by addition of equivalent volume (150 μL) of stopping solution (10% (w/v) FeCl3.H2O and 3.3% (w/v) trichloroacetic acid dissolved in 0.7 M HCl). The precipitated enzyme was removed by centrifugation and the supernatant was measured for its absorbance at 540 nm.
FIG. 19 provides data showing Adenylation assay of IvoA A domain with substituted tryptophan amino acids. The reaction was performed similarly according to the assay described in the caption of FIG. 9.

IvoA = target: T3, IvoA (Emericella nidulans, UniProt C8V7P4); test: Biocatalytic stereoinversion or deracemization of tryptophan and substituted tryptophans by IvoA (chiral-HPLC); type: biochemical, Aspergillus nidulans; details: for ee (%): ee of D-enantiomer, 1.5 mM substrates, 5 μM IvoA, 5 mM ATP, 10 mM MgCl2, 100 mM K2HPO4 buffer, pH 7.5
T3 construct: The full-length wild-type IvoA and mutants were expressed in S. cerevisiae JHY686 strain; octahistidine (His8) (N); made in house; host or cells: Saccharomyces cerevisiae JHY686
T3 sequence (C8V7P4 other isoform, or with tags, fused parts or gaps): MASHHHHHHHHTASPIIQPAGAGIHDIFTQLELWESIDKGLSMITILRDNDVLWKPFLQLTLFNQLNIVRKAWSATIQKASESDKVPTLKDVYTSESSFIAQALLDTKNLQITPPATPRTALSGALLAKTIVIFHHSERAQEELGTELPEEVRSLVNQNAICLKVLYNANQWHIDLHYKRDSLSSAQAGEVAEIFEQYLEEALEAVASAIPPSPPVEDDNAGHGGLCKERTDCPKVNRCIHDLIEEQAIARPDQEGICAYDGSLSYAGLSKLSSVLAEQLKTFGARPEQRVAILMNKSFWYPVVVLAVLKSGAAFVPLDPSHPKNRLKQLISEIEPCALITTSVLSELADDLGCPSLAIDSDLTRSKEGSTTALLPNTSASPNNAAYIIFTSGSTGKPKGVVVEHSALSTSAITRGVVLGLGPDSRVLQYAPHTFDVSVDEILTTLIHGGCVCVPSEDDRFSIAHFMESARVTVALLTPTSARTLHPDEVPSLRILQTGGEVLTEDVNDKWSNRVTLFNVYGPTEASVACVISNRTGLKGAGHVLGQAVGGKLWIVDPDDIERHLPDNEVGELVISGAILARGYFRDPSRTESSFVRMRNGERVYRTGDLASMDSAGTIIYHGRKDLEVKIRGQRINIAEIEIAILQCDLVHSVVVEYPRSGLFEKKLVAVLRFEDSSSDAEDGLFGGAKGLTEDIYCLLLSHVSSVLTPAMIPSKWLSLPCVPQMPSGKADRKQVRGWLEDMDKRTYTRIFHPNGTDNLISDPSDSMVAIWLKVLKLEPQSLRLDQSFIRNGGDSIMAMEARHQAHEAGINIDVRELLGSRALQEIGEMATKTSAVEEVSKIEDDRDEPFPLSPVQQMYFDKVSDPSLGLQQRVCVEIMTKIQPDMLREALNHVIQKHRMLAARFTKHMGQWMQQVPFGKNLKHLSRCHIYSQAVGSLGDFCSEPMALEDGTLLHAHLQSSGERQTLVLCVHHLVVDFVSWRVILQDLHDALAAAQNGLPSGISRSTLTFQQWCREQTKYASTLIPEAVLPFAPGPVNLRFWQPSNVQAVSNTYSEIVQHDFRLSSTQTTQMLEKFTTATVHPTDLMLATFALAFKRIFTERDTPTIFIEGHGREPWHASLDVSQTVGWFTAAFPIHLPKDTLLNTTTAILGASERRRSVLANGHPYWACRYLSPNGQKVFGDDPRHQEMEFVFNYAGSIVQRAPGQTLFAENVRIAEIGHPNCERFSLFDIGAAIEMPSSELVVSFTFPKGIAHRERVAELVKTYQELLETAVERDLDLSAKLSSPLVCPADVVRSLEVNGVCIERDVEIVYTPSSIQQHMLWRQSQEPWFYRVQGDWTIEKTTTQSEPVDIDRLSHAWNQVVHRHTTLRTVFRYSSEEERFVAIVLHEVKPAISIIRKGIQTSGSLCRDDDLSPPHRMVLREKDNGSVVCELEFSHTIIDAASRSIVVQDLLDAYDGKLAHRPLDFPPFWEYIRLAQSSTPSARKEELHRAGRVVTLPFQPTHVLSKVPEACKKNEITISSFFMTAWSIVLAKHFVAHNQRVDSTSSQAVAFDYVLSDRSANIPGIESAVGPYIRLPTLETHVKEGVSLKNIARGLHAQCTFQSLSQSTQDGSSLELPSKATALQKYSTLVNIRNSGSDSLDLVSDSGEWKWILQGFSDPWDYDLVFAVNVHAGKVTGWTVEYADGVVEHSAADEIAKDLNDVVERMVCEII
Procedure: […] The solvent was removed in vaccuo by speedvac and the residue was dissolved in ethanol and analyzed by chiral-HPLC by using a Crownpak® CR(+) column (150 mm×4 mm×3.5 μm, Daicel) at room temperature. The mobile phase was aq. HClO4 1% (w/v) supplemented with 15% (v/v) MeOH and the flow rate was 1.0 ml/min.

[1] = enzyme >50 μM, overnight incubation
Procedure: The reaction condition is 100 μM of IvoA+2 mM of ATP+1 mM of L-tryptophan+1 mM of AcCoA+5 mM MgCl2 in phosphate buffer (pH 7.5).
Acetyltryptophan acetyltransferase activity was performed by incubating 1-100 μM IvoA with 1 mM D-tryptophan or other substrates with 1 mM acetyl-CoA or 1 mM acetyl-phosphate in 100 mM phosphate buffer (pH 7.5). The reaction mixture was incubated at room temperature and the reaction was quenched at different time interval by mixing with 5-fold volume of methanol. The mixture was clarified by centrifugation to remove protein and salts, and the supernatant was dried in vaccuo by using speedvac. The residue was dissolved in methanol and subjected to LC-MS analysis. For ATP-dependent acetyltransferase activity, 1 mM LD-tryptophan, 5 mM ATP, 1 mM CoA and 5 mM MgCl2 were used.

[2] = Apparent steady-state kinetics of L-tryptophan stereoinversion by IvoA and mutants (chiral-HPLC quantification of D-tryptophan); type: biochemical, Aspergillus nidulans; details: for kcat^app / Km: L-tryptophan stereoinversion; for Km: read-out: Km^app
Procedure: FIG. 11 provides data showing the Apparent steady-state kinetics of IvoA catalyzed stereoinversion. […] The kinetic constants were shown in the main text. For WT, 1 μM enzyme was used in each assay and the reaction was quenched after 2 min. For E0 mutant, 10 μM enzyme was used in each assay and the reaction was quenched after 60 min. For C0 mutant, 50 μM enzyme was used in each assay and the reaction was quenched after 60 min.
Chiral-resolution allowed us to determine the apparent steady-state kinetics by quantifying D-tryptophan formation (Table 1, FIG. 11). […] Both E and C domains are catalytically important for IvoA, as inactivating either domain by mutating the catalytic histidine residues (H963A and H1428A) substantially compromised the apparent turnover number kcat (420-fold by E^0 while 4700-fold by C^0).
The ATP-dependent stereoinversion activity was typically performed with 2-5 μM IvoA, 1 mM L/D-tryptophan, 3 mM ATP and 10 mM MgCl2 in 100 mM phosphate buffer (pH 7.5), and the reaction was quenched by mixing with 5-volume of methanol. The solvent was removed in vaccuo by speedvac and the residue was dissolved in ethanol and analyzed by chiral-HPLC by using a Crownpak® CR(+) column (150 mm×4 mm×3.5 μm, Daicel) at room temperature. The mobile phase was aq. HClO4 1% (w/v) supplemented with 15% (v/v) MeOH and the flow rate was 1.0 ml/min.

Molecule: CC(=O)NCCSC(=O)C(N)Cc1c[nH]c2ccccc12 (racemic) [DL-Trp-SNAC, DL-tryptophan-S—N-acetylcysteamine]
- hydrolysis by IvoA-C versus nonenzymatic (IvoA-C): not good substrate

Molecule: Cc1[nH]c2ccccc2c1CC(N)C(=O)O (racemic) [Entry 13, 2-Me-DL-tryptophan]
- activation by A domain (IvoA A domain): inefficient activation
- conversion by IvoA / substrate quality (IvoA): No conversion
- ee (%) (IvoA): 1.3%

Molecule: CC(C)(CO)[C@@H](O)C(=O)NCCC(=O)NCCSC(=O)[C@H](N)Cc1c[nH]c2ccccc12 [D-Trp-pant, D-tryptophan-S-pantatheine]
- hydrolysis by IvoA-C versus nonenzymatic (IvoA-C): not good substrate

Molecule: N[C@H](Cc1c[nH]c2ccccc12)C(=O)O [D-tryptophan]
- conversion by IvoA / substrate quality (IvoA): cannot convert

Molecule: N[C@@H](Cc1c[nH]c2ccccc12)C(=O)O [Entry 1, L-tryptophan]
- activation by A domain (IvoA A domain): preferred substrate
- time to complete conversion of L-tryptophan to D-tryptophan (IvoA; 1 mM L-tryptophan, chiral-HPLC): 3 h
- ee (%) (IvoA): >99%

Molecule: COc1ccc2[nH]cc(C[C@H](N)C(=O)O)c2c1 [Entry 2, 5-OMe-L-tryptophan]
- ee (%) (IvoA): >99%

Molecule: N#Cc1ccc2[nH]cc(CC(N)C(=O)O)c2c1 (stereo not shown) [Entry 3]
- conversion by IvoA / substrate quality (IvoA): poor substrates
- ee (%) (IvoA): 63%

Molecule: NC(Cc1c[nH]c2ccc([N+](=O)[O-])cc12)C(=O)O (stereo not shown) [Entry 4]
- conversion by IvoA / substrate quality (IvoA): poor substrates
- ee (%) (IvoA): 44%

Molecule: NC(Cc1c[nH]c2cccc(F)c12)C(=O)O (stereo not shown) [Entry 5]
- ee (%) (IvoA): >99%

Molecule: NC(Cc1c[nH]c2ccc(F)cc12)C(=O)O (stereo not shown) [Entry 6]
- ee (%) (IvoA): >99%

Molecule: NC(Cc1c[nH]c2cc(F)ccc12)C(=O)O (stereo not shown) [Entry 7]
- ee (%) (IvoA): >99%

Molecule: NC(Cc1c[nH]c2ccc(Cl)cc12)C(=O)O (stereo not shown) [Entry 8]
- ee (%) (IvoA): >99%

Molecule: NC(Cc1c[nH]c2cc(Cl)ccc12)C(=O)O (stereo not shown) [Entry 9]
- ee (%) (IvoA): 98%

Molecule: NC(Cc1c[nH]c2ccc(Br)cc12)C(=O)O (stereo not shown) [Entry 10]
- ee (%) (IvoA): >99%

Molecule: NC(Cc1c[nH]c2cc(Br)ccc12)C(=O)O (stereo not shown) [Entry 11]
- conversion by IvoA / substrate quality (IvoA): poor substrates
- ee (%) (IvoA): 75%

Molecule: NC(Cc1c[nH]c2c(Br)cccc12)C(=O)O (stereo not shown) [Entry 12]
- conversion by IvoA / substrate quality (IvoA): poor substrates
- ee (%) (IvoA): 87%

Molecule: Cc1cccc2[nH]cc(CC(N)C(=O)O)c12 (stereo not shown) [Entry 14]
- ee (%) (IvoA): >99%

Molecule: Cc1ccc2[nH]cc(CC(N)C(=O)O)c2c1 (stereo not shown) [Entry 15]
- ee (%) (IvoA): >99%

Molecule: Cc1ccc2c(CC(N)C(=O)O)c[nH]c2c1 (stereo not shown) [Entry 16]
- ee (%) (IvoA): 97%

Molecule: Cc1cccc2c(CC(N)C(=O)O)c[nH]c12 (stereo not shown) [Entry 17]
- ee (%) (IvoA): >99%

Molecule: WT: wild-type single-module nonribosomal peptide synthetase IvoA from Aspergillus nidulans
- kobs^app of N-acetyl-D-tryptophan formation [1]: < 0.1 h⁻¹
- kcat^app [2]: 0.633 ± 0.05 s⁻¹
- kcat^app ([2]; listed as IvoA): 0.633 s⁻¹
- Km ([2]; listed as IvoA): ~50 µM
- Km [2]: 50 ± 10 µM
- Ki ([2]; substrate inhibition by L-tryptophan, read-out: Ki^app (substrate inhibition)): 4 mM
